Assay results published in patent US20060069132A1, “Azolecarboxamide herbicides” (priority 2004, published 2006).

Columns and labels:
johnsongrass = assay: Test C pre-/postemergence herbicide test; assay type: in vivo, Sorghum halepense
In short: (§1)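 Visual injury scores run from 0 (no effect) to 100 (complete control), assessed relative to untreated controls 12 to 14 days after treatment in the greenhouse. Chemicals were formulated in a non-phytotoxic solvent mixture with surfactant and applied to soil after planting or to emerged plants at the 1- to 4-leaf stage.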

barnyardgrass [1] = assay: Test A pre-/postemergence herbicide test; assay type: in vivo, Echinochloa crus-galli; conditions: for Plant response rating, Barnyardgrass: Postemergence; for Barnyardgrass plant response rating: Preemergence
In short: (§2)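 Pre: seeded sandy loam, directed soil spray, compound in non-phytotoxic solvent + surfactant. Post: 1–2-leaf plants (2–10 cm), sprayed to runoff. Greenhouse ~10 d; visual injury vs untreated, 0–100 scale.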

barnyardgrass [2] = assay: Test B pre-/postemergence herbicide test; assay type: in vivo, Echinochloa crus-galli
In short: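 Pre: seeds sown, then sprayed. Post: 1–4-leaf plants (2–18 cm) sprayed at the same time. Paddy: flooded, treated at 2-leaf stage. Formulation: non-phytotoxic solvent with surfactant. Greenhouse 13–15 days; visual 0–100 score relative to controls.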

morningglory = assay: Test A pre-/postemergence herbicide test; assay type: in vivo, Ipomoea spp.; conditions: for Plant response rating, Morningglory: Postemergence; for Morningglory plant response rating: Preemergence
In short: as §2

woolly cupgrass = assay: Test C pre-/postemergence herbicide test; assay type: in vivo, Eriochloa villosa
In short: as §1

lambsquarters = assay: Test C pre-/postemergence herbicide test; assay type: in vivo, Chenopodium album
In short: as §1

large crabgrass = assay: Test B pre-/postemergence herbicide test; assay type: in vivo, Digitaria sanguinalis
In short: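 Flooded paddy rice and barnyardgrass were treated at the 2-leaf stage; upland plantings received compound either on sown seed or on 1- to 4-leaf seedlings. All were kept 13–15 days in a greenhouse and scored visually, 0–100, relative to untreated plants.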

[3] = 31 g ai/ha, preemergence, scale 0 to 100
[4] = 125 g ai/ha, scale 0 (no effect) to 100 (complete control), visual, 12 to 14 days, preemergence
[5] = Postemergence, 125 g ai/ha, scale 0 to 100, 0 no effect, 100 complete control
[6] = postemergence, 62 g ai/ha, scale 0 to 100
[7] = 500 g ai/ha, 0 to 100 scale, 0 no effect, 100 complete control
[8] = 2000 g ai/ha, 0 to 100 scale, 0 no effect, 100 complete control
[9] = 500 g ai/ha, visual rating, 0 to 100 scale (0 no effect, 100 complete control)
[10] = Postemergence, 125 g ai/ha, scale 0 (no effect) to 100 (complete control)
[11] = Postemergence, 500 g ai/ha, visual rating after 13 to 15 days, scale 0 (no effect) to 100 (complete control)
[12] = Preemergence, 500 g ai/ha, scale 0 to 100
[13] = 250 g ai/ha, scale 0 to 100 (0 no effect, 100 complete control), visual, 12 to 14 days, preemergence
[14] = Preemergence, 500 g ai/ha, scale 0 to 100, 0 no effect, 100 complete control
[15] = postemergence, 125 g ai/ha, visual rating, scale 0 (no effect) to 100 (complete control)
[16] = preemergence, 125 g ai/ha, 0 to 100 scale, 0 is no effect, 100 is complete control

SMILES | Plant response rating (0 = no effect, 100 = complete control), Johnsongrass (johnsongrass; 62 g ai/ha, preemergence) | Plant response rating, Johnsongrass (johnsongrass; [4]) | Plant response rating, Barnyardgrass (barnyardgrass [1]; [7]) | Plant response rating, Barnyardgrass (barnyardgrass [1]; [8]) | Barnyardgrass plant response rating (barnyardgrass [1]; [9]) | Barnyardgrass plant response rating (barnyardgrass [1]; [8]) | Plant response rating, Barnyardgrass (barnyardgrass [2]; [11]) | Barnyardgrass plant response rating (barnyardgrass [2]; [12]) | Plant response rating, Morningglory (morningglory; [7]) | Plant response rating, Morningglory (morningglory; [8]) | Morningglory plant response rating (morningglory; [9]) | Morningglory plant response rating (morningglory; [8]) | Plant response rating (0 = no effect, 100 = complete control), Cupgrass, Woolly (woolly cupgrass; 62 g ai/ha, preemergence) | Plant response rating, Cupgrass, Woolly (woolly cupgrass; [4]) | Plant response rating (0 = no effect, 100 = complete control), Lambsquarters (lambsquarters; 62 g ai/ha, preemergence) | Plant response rating, Lambsquarters (lambsquarters; [4]) | Plant response rating, Crabgrass, Large (large crabgrass; [11]) | Crabgrass, Large plant response rating (large crabgrass; [12]) | other results
CCNC(=O)c1cccc(NC(=O)c2cc(C(C)(C)C)nn2CCF)c1 [Compound 35] | 50 | 70 | 70 | 85 | 70 | 90 | 20 | 100 | 10 | 10 | 25 | 85 | 10 | 20 | 90 | 100 | 20 | 90 | Plant response rating, Johnsongrass (johnsongrass; [3]): 10; Plant response rating, Johnsongrass (johnsongrass; [5]): 70; Plant response rating, Johnsongrass (johnsongrass; [6]): 70; Barnyardgrass plant response rating (barnyardgrass [2]; [10]): 10; Plant response rating, Cupgrass, Woolly (woolly cupgrass; [3]): 10; Plant response rating, Cupgrass, Woolly (woolly cupgrass; [5]): 60; Plant response rating, Cupgrass, Woolly (woolly cupgrass; [6]): 40; Plant response rating, Lambsquarters (lambsquarters; [3]): 0; Plant response rating, Lambsquarters (lambsquarters; postemergence, 125 g ai/ha, scale 0 to 100): 90; Plant response rating, Lambsquarters (lambsquarters; [6]): 90; Crabgrass, Large plant response rating (large crabgrass; [10]): 20
CCn1nc(C(C)(C)C)cc1C(=O)Nc1cccc(C(=O)NCC(C)C)c1 [Compound 61] | 10 | 30 | 35 | 90 | 40 | 75 | 30 | 60 | 10 | 20 | 20 | 50 | 0 | 0 | 100 | 100 | 30 | 100 | Plant response rating, Johnsongrass (johnsongrass; [13]): 50; Johnsongrass plant response rating (johnsongrass; [14]): 60; Barnyardgrass plant response rating (barnyardgrass [2]; [15]): 20; Plant response rating, Barnyardgrass (barnyardgrass [2]; [16]): 20; Plant response rating, Cupgrass, Woolly (woolly cupgrass; [13]): 0; Cupgrass, Woolly plant response rating (woolly cupgrass; [14]): 10; Plant response rating, Lambsquarters (lambsquarters; [13]): 100; Lambsquarters plant response rating (lambsquarters; [14]): 100; Crabgrass, Large plant response rating (large crabgrass; [15]): 20; Plant response rating, Crabgrass, Large (large crabgrass; [16]): 50
